# Measured values published in patent US20260174784A1, “Molecular Signatures that Predict Risk for Development of Hepatic Encephalopathy” (The Regents of the University of California, priority 2022, published 2026).
# Assays:
# [1] = molecular target: T1, farnesoid X receptor (FXR) (Homo sapiens, UniProt Q96RI1); settings: ligand-mediated nuclear receptor; literature ref 48; cited from earlier work
# T1 sequence (Q96RI1 1-486): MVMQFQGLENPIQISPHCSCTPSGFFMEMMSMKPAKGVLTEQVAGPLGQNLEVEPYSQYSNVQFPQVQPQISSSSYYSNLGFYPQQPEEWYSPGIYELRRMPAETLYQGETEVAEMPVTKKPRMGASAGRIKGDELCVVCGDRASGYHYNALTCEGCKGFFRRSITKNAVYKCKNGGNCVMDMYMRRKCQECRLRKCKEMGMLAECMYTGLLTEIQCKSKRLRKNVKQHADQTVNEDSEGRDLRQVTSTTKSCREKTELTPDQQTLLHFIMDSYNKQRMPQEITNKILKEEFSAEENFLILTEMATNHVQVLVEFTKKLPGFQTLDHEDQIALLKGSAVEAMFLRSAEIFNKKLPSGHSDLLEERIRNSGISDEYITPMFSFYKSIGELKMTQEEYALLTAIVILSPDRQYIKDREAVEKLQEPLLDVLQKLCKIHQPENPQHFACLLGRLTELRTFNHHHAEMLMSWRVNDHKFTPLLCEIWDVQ
# [2] = test system: neuronal oxidative damage induced by bilirubin; settings: supplementation with GUDCA; previous studies in animal models; cited from earlier work
# hepatic encephalopathy = assay: HE treatment of readmitted TIPS participant 11_a (case course); format: in vivo, human; settings: for response to HE treatment: first readmission 9 days post-TIPS, lactulose and rifaximin given together
# Source text: After the data were collected, the hospital courses of the two participants who were readmitted during the study period were examined. Participant 11_a (FIG. 6C) was a person with a history of cryptogenic cirrhosis with banded esophageal varices but with no prior history of HE. They underwent TIPS procedure due to progressively worsening ascites refractory to diuretic therapy and need for intermittent paracentesis. They were readmitted to the medical intensive care unit 9 days post-TIPS with obtundation requiring intubation for airway protection. Blood was drawn on the day of admission before initiation of hepatic encephalopathy treatment (pre-HET) (FIG. 6C). […] Blood was collected for analysis on the day after treatment initiation (post-HET) (FIG. 6C). They were discharged 9 days later. However, they were readmitted within 72 hours for altered mental status. […] Their encephalopathy resolved after continuous polyethylene glycol infusion via nasojejunal tube, but was again admitted 352 days post-TIPS for HE in the setting of urosepsis.
compound,measurement,setting,value
"C[C@H](CCC(=O)NCC(=O)O)[C@H]1CC[C@H]2[C@@H]3[C@@H](O)C[C@@H]4C[C@H](O)CC[C@]4(C)[C@H]3CC[C@]12C [GUDCA, glycoursodeoxycholic acid]",effect on farnesoid X receptor (FXR),[1],directly inhibited
same,neuronal oxidative damage induced by bilirubin,[2],can be inhibited
CO[C@H]1/C=C/O[C@@]2(C)Oc3c(C)c(O)c4c(O)c(c5c(nc6cc(C)ccn65)c4c3C2=O)NC(=O)/C(C)=C\C=C\[C@H](C)[C@H](O)[C@@H](C)[C@@H](O)[C@@H](C)[C@H](OC(C)=O)[C@@H]1C [rifaximin],response to HE treatment,hepatic encephalopathy,responded well
OC[C@H]1O[C@@H](O[C@@H]2[C@@H](CO)OC(O)(CO)[C@H]2O)[C@H](O)[C@@H](O)[C@H]1O (mixture of isomers) [lactulose],response to HE treatment,hepatic encephalopathy,responded well
polyethylene glycol,encephalopathy outcome,"hepatic encephalopathy; second readmission, continuous infusion via nasojejunal tube",resolved
